How the values were obtained:
Dipeptidyl peptidase 9 = Dipeptidyl peptidase 9 (Homo sapiens, UniProt Q86TI2)
Dipeptidyl peptidase 2 = Dipeptidyl peptidase 2 (Homo sapiens, UniProt Q9UHL4); experiment: Inhibition of DPP7
Dipeptidyl peptidase 8 = Dipeptidyl peptidase 8 (Homo sapiens, UniProt Q6V1X1)
Prolyl endopeptidase = target: T1, Prolyl endopeptidase (Homo sapiens, UniProt P48147); experiment: Inhibition of POP
T1 sequence (P48147 whole entry): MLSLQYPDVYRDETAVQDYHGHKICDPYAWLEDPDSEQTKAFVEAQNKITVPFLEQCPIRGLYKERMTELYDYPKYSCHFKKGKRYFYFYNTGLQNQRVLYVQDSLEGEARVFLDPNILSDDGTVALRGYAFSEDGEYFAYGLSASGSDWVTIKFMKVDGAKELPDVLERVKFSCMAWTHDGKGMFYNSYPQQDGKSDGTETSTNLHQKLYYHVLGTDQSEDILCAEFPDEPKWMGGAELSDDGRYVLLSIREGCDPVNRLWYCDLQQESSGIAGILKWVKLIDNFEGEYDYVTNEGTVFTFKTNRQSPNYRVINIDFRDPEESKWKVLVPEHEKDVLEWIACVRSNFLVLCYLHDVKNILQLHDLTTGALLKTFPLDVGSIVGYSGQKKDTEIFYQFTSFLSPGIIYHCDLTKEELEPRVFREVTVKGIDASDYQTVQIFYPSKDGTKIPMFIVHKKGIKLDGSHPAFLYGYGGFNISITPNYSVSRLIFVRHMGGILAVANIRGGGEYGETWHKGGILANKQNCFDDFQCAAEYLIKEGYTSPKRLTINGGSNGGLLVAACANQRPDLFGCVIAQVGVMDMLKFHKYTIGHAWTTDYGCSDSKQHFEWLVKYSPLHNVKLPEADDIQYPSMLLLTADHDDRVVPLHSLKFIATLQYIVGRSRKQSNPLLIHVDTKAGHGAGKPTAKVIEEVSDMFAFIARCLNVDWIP

Prolyl endopeptidase FAP = target: T2, Prolyl endopeptidase FAP (Homo sapiens, UniProt Q12884); experiment: Inhibition of FAPalpha
T2 sequence (Q12884 whole entry): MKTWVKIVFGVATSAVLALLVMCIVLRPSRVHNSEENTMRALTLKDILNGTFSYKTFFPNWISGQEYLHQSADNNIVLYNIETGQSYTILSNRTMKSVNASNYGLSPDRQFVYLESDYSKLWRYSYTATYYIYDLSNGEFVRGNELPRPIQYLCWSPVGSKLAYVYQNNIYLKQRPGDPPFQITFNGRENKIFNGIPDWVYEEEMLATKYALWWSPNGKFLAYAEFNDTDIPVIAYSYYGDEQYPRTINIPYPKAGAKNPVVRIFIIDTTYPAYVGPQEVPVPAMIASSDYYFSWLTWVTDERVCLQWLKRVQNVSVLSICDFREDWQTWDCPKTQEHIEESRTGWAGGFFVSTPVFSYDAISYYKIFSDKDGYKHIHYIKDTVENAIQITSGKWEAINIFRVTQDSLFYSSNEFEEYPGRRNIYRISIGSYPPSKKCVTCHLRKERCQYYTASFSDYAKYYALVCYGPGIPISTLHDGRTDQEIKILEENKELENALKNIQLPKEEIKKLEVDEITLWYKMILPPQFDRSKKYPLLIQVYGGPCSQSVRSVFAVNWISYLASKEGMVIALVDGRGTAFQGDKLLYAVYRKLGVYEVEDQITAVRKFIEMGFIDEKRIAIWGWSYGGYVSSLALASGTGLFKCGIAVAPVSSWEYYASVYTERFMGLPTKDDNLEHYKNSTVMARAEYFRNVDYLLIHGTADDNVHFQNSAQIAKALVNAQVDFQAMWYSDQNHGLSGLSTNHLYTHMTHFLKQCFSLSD

Dipeptidyl peptidase 9, sequence (Q86TI2 whole entry): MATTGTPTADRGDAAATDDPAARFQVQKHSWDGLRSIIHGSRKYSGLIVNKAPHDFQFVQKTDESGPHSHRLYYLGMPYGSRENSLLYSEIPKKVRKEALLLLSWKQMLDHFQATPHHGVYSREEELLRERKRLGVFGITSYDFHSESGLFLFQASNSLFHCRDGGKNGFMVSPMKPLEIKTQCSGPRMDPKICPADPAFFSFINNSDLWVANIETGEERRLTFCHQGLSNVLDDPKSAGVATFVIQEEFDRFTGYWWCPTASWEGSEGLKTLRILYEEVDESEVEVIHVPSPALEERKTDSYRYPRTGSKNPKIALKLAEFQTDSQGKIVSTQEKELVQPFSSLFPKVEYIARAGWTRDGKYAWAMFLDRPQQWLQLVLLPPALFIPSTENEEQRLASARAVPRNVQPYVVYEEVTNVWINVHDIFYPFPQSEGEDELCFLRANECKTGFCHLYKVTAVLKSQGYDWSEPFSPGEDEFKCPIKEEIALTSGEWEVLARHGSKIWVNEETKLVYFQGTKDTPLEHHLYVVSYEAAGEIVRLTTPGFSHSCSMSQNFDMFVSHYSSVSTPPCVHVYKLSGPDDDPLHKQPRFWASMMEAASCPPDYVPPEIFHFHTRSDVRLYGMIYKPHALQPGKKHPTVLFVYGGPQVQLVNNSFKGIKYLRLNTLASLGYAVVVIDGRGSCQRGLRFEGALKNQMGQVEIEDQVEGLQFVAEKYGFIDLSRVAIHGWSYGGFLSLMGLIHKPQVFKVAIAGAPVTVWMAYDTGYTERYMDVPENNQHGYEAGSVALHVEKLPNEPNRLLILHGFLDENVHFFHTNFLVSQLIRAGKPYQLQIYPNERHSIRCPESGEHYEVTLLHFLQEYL
Dipeptidyl peptidase 8, sequence (Q6V1X1 whole entry): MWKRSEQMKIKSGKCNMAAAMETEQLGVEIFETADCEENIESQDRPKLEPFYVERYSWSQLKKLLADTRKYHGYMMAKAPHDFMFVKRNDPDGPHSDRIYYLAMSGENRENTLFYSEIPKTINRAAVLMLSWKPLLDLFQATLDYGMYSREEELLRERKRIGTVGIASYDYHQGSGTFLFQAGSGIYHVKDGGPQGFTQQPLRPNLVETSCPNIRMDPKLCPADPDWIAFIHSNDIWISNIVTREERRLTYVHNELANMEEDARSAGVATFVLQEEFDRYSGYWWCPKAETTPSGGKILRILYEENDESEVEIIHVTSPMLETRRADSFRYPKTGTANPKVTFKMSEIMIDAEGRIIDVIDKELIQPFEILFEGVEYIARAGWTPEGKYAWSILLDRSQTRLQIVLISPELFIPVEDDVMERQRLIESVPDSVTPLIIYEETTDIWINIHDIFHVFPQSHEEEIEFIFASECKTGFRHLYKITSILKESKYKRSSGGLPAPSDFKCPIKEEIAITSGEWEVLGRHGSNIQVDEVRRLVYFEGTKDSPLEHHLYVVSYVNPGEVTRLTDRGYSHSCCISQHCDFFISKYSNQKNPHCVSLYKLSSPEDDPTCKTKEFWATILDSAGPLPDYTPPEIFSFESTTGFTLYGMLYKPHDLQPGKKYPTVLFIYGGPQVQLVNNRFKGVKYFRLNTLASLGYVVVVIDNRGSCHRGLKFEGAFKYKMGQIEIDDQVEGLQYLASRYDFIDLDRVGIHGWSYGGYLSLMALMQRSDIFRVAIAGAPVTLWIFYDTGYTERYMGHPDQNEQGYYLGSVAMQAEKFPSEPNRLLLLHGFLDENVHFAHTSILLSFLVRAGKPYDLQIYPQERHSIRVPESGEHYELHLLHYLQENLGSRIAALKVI

Compound | Ki (Dipeptidyl peptidase 9) [µM] | Ki (Dipeptidyl peptidase 2) [µM] | Ki (Dipeptidyl peptidase 8) [µM] | Ki (Prolyl endopeptidase) [µM] | Ki (Prolyl endopeptidase FAP) [µM]
C#C[C@H]1CC[C@@H](C#N)N1C(=O)[C@@H](N)C1CCCC1 | > 30 |  |  |  | 
C#C[C@H]1CC[C@@H](C#N)N1C(=O)CNC1(C)CCN(c2ccc(C(=O)O)cn2)CC1 | > 30 | > 30 | > 30 | > 30 | > 30
C#C[C@H]1CC[C@@H](C#N)N1C(=O)CNC12CC3CC(CC(O)(C3)C1)C2 | > 30 |  | > 30 |  | 
C#C[C@H]1CC[C@@H](C#N)N1C(=O)CNC(C)(C)C | > 30 |  | > 30 |  | 
